Tested on: HEK293T cells
Assay: In vitro transfection efficiency of LNPs encapsulating SamRNA-GFP in HEK293T cells (flow cytometry)
Type: cell-based
Settings: modular lipid/DOPE/DMG-PEG2000 40/10/2 mole ratio, 100 ng RNA, 24 hours
Protocol: The modular lipids of the disclosure were mixed with at least one of ionizable lipid, DOPE, cholesterol (Chol), and/or DMG-PEG2000 in ethanol at a predetermined molar ratio. Ionizable lipid: SamRNA molar ratio of 6:1 was used to prepare an organic phase. SamRNA-LUC or SamRNA-GFP was diluted in 50 mM citrate buffer (pH 4.5, Fisher) or PBS (pH 7.4, Fisher) to prepare an aqueous phase. The SamRNA was stored at −80° C. and was thawed on ice prior to use. The ethanol and aqueous phases were mixed at a 1:3 ratio by pipette. The resultant LNPs were purified by ultrafiltration (100,000 cut-off, MilliporeSigma™ Amicon™ Ultra-15 Centrifugal Filter Units) at 4° C. prior to injection.
LNPs containing SamRNA-GFP or SamRNA-LUC were added into 96-well plate at 100 ng/well pre-seeded with HEK293, C2C12 or MC38 cells. After a 24 hour incubation at 37° C. and 5% CO2, the SamRNA-LUC transfection efficiency was measured by plate reader (Perkin Elmer Envision 2104) and GFP SamRNA transfection efficiency was measured by flow cytometry (BD FACSymphony™ A5 SE Cell Analyzer).
The transfection efficacy of LNPs formulated using modular lipids P161F5, P161F6 or P161F10; DOPE and DMG-PEG2000 (modular lipid/DOPE/DMG-PEG2000, 40/10/2 mole ratio) encapsulating LNP-SamRNA-GFP were studied using HEK293T cells in 96-well plates. […]

SMILES | transfection efficiencies compared with four-component LNPs containing MC3 and SM102
CCCCCCCCCCC(CCCCCCCC)CN(C(=O)CCC(C)C1CCC2C3CC(O)C4CC(O)CCC4(C)C3CCC12C)C(CC1CCN(C)CC1)C(=O)NC12CC3CC(CC(C3)C1)C2 (centres unmarked) [P161F10, N-(1-(((1s,3s)-adamantan-1-yl)amino)-3-(1-methylpiperidin-4-yl)-1-oxopropan-2-yl)-4-(3,6-dihydroxy-10,13-dimethylhexadecahydro-1H-cyclopenta[a]phenanthren-17-yl)-N-(2-octyldodecyl)pentanamide] | comparable or higher
CCCCCCCCCCCCC(CCCCCCCCCC)CN(C(=O)CCC(C)C1CCC2C3CC(O)C4CC(O)CCC4(C)C3CCC12C)C(C(=O)NC12CC3CC(CC(C3)C1)C2)C1CCN(CC)CC1 (centres unmarked) [P161F6, N-(2-(((1s,3s)-adamantan-1-yl)amino)-1-(1-ethylpiperidin-4-yl)-2-oxoethyl)-N-(2-decyltetradecyl)-4-(3,6-dihydroxy-10,13-dimethylhexadecahydro-1H-cyclopenta[a]phenanthren-17-yl) pentanamide] | comparable or higher
